Reference: patent US9549911B2, “Ginger metabolites and uses thereof” (North Carolina A&T State University, priority 2012, dated 2017)
Like-named read-outs stand apart in the source and are kept apart here. Blank lines part the entries; values can stand above or below the compound they belong to.

Key:
[1] = Chemical inhibition of [6]-shogaol metabolism in liver microsomes; assay type: in vitro ADME, human; conditions: inhibitor 500 μM, 20 min pre-incubation, [6]-shogaol 50 μM, 30 min
Procedure: Inhibitors ABT (500 μM) and 18β-GA (500 μM) or DMSO controls were pre-incubated with microsomes in experimental incubation mixture at 37° C. for 20 minutes before initiating the reaction by the addition of [6]-shogaol (50 μM). Reactions were terminated 30 minutes after substrate addition and incubation in a 37° C. water bath by equal volume of ice-cold acetonitrile with 2% acetic acid. The mixture was vortexed and underwent centrifugation at 13,000 g for 10 minutes. Aliquots of supernatant were stored at −20° C. until analysis.

[2] = system: human colon cancer cells HCT-116; assay: MTT growth inhibition of human cancer and normal cells (Part 2); assay type: cell-based; conditions: for activity against cancer cells (MTT): HCT-116, 0 to 80 μM; for IC50: HCT-116, 48 h, 0 to 80 μM
Procedure: (§1) Growth inhibition of human cancer and normal cells. Cell growth inhibition was determined by a MTT colorimetric assay. Human colon cancer cells HCT-116, human lung cancer cells H-1299, human colon fibroblast cells CCD-18Co, and human lung fibroblast cells IMR-90 were plated in 96-well microtiter plates with 3000 cells/well and allowed to attach for 24 h at 37° C. […] After the cells were cultured for 48 h, the medium was aspirated and cells were treated with 200 μL fresh medium containing 2.41 mmol/L MTT. […] The reading reflected the number of viable cells and was expressed as a percentage of viable cells in the control. Both HCT-116 and H-1299 cells were cultured in McCoy's 5A medium. CCD-18Co and IMR-90 cells were cultured in Eagle's modified essential medium (EMEM). All of the above media were supplemented with 10% fetal bovine serum, 1% penicillin/streptomycin, and 1% glutamine, and the cells were kept in a 37° C. incubator with 95% humidity and 5% CO2.

[3] = system: human lung cancer cells H-1299; assay: as above; assay type: cell-based; conditions: for activity against cancer cells (MTT): H-1299, 0 to 80 μM; for IC50: H-1299, 48 h, 0 to 80 μM
Procedure: as §1

[4] = system: HT-29 cells; assay: Western blot analysis of apoptosis markers and p53 (Part 5); assay type: cell-based, human; conditions: HT-29 (p53 mutant), 24 hours; M2, 6S 10, 20 or 40 μM; 8S, M2′, 10S, M2″ 20 μM
Procedure: (§2) Cell lysates were prepared in ice-cold RIPA lysis buffer [25 mM Tris-HCl (pH 7.6), 150 mM NaCl, 1% NP-40, 1% sodium deoxycholate, 0.1% SDS, Thermo Fisher Scientific] supplemented with a protease inhibitor cocktail (AEBSF, aprotinin, bestatin, E-64, leupeptin and pepstatin A in DMSO with EDTA, Thermo Fisher Scientific). Protein content was measured by a Pierce BCA Assay Kit (Thermo Fisher Scientific). Protein contents of cell lysates (30 μg protein/lane) were resolved by SDS-PAGE. Proteins were then electro-transferred onto PVDF membranes and blots were blocked for one hour at room temperature in 1×TBS with 1% Casein (Bio-Rad Laboratories, Berkeley, Calif.). Blots were then incubated overnight at 4° C. with the desired primary antibody diluted in TBS with 0.5% Tween-20. Blots were then washed with TBS-Tween 20 and probed for 1 hour with the appropriate secondary antibody (1:1000). Protein bands were visualized with chemiluminescence using West Femto maximum detection substrate (Thermo Fisher Scientific). To confirm equal protein loading in each lane, immunoblots were stripped and re-probed for β-actin. Protein fold-induction was calculated by normalizing the intensity of the band of interest to β-actin first, and then to DMSO control lanes.

[5] = system: HCT-116 cells; assay: as above; assay type: cell-based, human; conditions: HCT-116 (p53 wild-type), 24 hours; M2, 6S 10, 20 or 40 μM; 8S, M2′, 10S, M2″ 20 μM
Procedure: as §2

[6] = system: human colon cancer cells HCT-116; assay: MTT toxicity in colon cancer and normal colon cells (Part 5); assay type: cell-based; conditions: HCT-116, 24 hours
Procedure: (§3) Cell viability was determined by an MTT colorimetric assay. […] The reading reflected the number of viable cells and was expressed as a percentage of viable cells in the control. CCD-18Co cells were grown in EMEM. Both HCT-116 and HT-29 cells were cultured in McCoy's 5A medium. All of the above media were supplemented with 10% fetal bovine serum, 1% penicillin/streptomycin, and 1% glutamine, and the cells were kept in a 37° C. incubator with 95% humidity and 5% CO2.

[7] = system: human colon cancer cells HT-29; assay: as above; assay type: cell-based; conditions: HT-29 (p53 mutant), 24 hours
Procedure: as §3

[8] = system: human lung fibroblast cells IMR-90; assay: in vitro; assay type: cell-based
Procedure: as §1

[9] = system: human colon fibroblast cells CCD-18Co; assay: in vitro; assay type: cell-based
Procedure: as §1

[10] = in vitro; assay type: cell-based, human; conditions: human; normal lung cells IMR-90, 48 h; read-out: IC50 (cytotoxicity, MTT)
Procedure: as §1

[11] = in vitro; assay type: cell-based, human; conditions: human; normal colon cells CCD-18Co, 48 h; read-out: IC50 (cytotoxicity, MTT)
Procedure: as §1

[12] = system: H-1299 human lung cancer cells; assay: MTT growth inhibition of human cancer cells, 24 h (Part 1); assay type: cell-based; conditions: Homo sapiens, NCI-H1299; H-1299, 24 h, 0 to 80 μM
Procedure: (§4) The reading reflected the number of viable cells and was expressed as a percentage of viable cells in the control. Both HCT-116 and H-1299 cells were cultured in McCoy's 5A medium. All of the above media were supplemented with 10% fetal bovine serum, 1% penicillin/streptomycin, and 1% glutamine, and the cells were kept in a 37° C. incubator with 95% humidity and 5% CO2.

[13] = system: HCT-116 human colon cancer cells; assay: as above; assay type: cell-based; conditions: Homo sapiens; HCT-116, 24 h, 0 to 80 μM
Procedure: as §4

[14] = system: H-1299 cells; assay: TUNEL apoptosis assay (Part 1); assay type: cell-based, human; conditions: 24 h
Procedure: (§5) HCT-116 and H-1299 cells were seeded in six-well plates at 1.0×10^5 cells/well and were incubated at 37° C. in a 5% CO2 incubator. After 24 h, fresh media supplemented with DMSO (control), [6]-shogaol (10 or 20 μM), M9 (40 or 80 μM), or M11 (40 or 80 μM) were added to the wells. After 24-h incubation, cells were washed and pretreated for 15 min at room temperature with a solution of 20 μg/ml proteinase K. Cells were then washed twice with PBS pH 7.4 and were fixed for 10 min at room temperature using 10% neutral formaldehyde solution. After two washes in distilled H2O, cells were resuspended in 100 μl of distilled H2O and were applied on silanized microscope slides. Slides were incubated overnight at 37° C. and were washed twice with PBS. Terminal deoxynucleotidyl transferase deoxyuridine triphosphate nick-end labeling (TUNEL) assay was then performed according to the manufacturer's protocol. Cells were observed under 400× power using a Zeiss A1 microscope (Carl Zeiss, Inc., Thornwood, N.Y.).
(§6) Ten fields per slide were evaluated, and TUNEL-positive cells (with brown coloration in the nucleus) were expressed as a percentage of the total number of cells contained in a field. Statistical Analysis. For simple comparisons between two groups, twotailed Student's t test was used. A p value of less than 0.05 was considered statistically significant in all the tests.

[15] = system: HCT-116 cells; assay: TUNEL apoptosis assay (Part 1); assay type: cell-based, human; conditions: 24 h
Procedure: as §5, §6

[16] = system: H-1299 cells; assay: TUNEL apoptosis assay (Part 2); assay type: cell-based, human; conditions: H-1299, 20 or 40 μM, 24 hours
Procedure: (§7) HCT-116 and H1299 cells were seeded in 6-well plates at 1×10^5 cells/well and incubated at 37° C. in 5% CO2 incubator. After 24 hours, fresh media supplemented with DMSO (control), [6]-shogaol, M2, M6, or M13 metabolites (20 μM or 40 μM) were added to the wells. After 6 or 24 hours incubation at 37° C. in 5% CO2 incubator, cells were washed and pre-treated for 15 min at room temperature with a solution of 20 μg/ml proteinase K. Cells were then washed twice with phosphate buffer saline pH 7.4 (PBS) and fixed for 10 min at room temperature using 10% neutral formaldehyde solution. After 2 washes in ddH2O, cells were resuspended in 100 μL ddH2O and applied on silanized microscope slides. Slides were incubated overnight at 37° C., and washed twice with PBS. TUNEL assay was then carried out according to the manufacturer's protocol. Cells were observed under 400× power using a Zeiss microscope A1 (Thornwood, N.Y.). 10 fields per slide were evaluated, and TUNEL+ cells (with brown coloration in the nucleus) were expressed as a percentage of the total number of cells contained in a field.

[17] = system: HCT-116 cells; assay: TUNEL apoptosis assay (Part 2); assay type: cell-based, human; conditions: HCT-116, 20 or 40 μM
Procedure: as §7

SMILES: CC1(C)[C@@H](O)CC[C@]2(C)[C@H]3C(=O)C=C4[C@@H]5C[C@@](C)(C(=O)O)CC[C@]5(C)CC[C@@]4(C)[C@]3(C)CC[C@@H]12 [18β-glycyrrhetinic acid]
- effect on reductive metabolism of [6]-shogaol [1]: decimated the reductive metabolism

SMILES: Nn1nnc2ccccc21 [ABT, 1-Aminobenzotriazole]
- effect on oxidative metabolism of [6]-shogaol [1]: abrogated
- effect on reductive metabolism of [6]-shogaol [1]: did not inhibit reductive metabolism

SMILES: CCCCCC(CC(O)CCc1ccc(O)c(OC)c1)SCC(N)C(=O)O (centres unmarked) [M1, 5-cysteinyl-M6]
- activity against cancer cells (MTT) [2]: little to no activity
- activity against cancer cells (MTT) [3]: little to no activity

SMILES: CCCCCCCC(CC(=O)CCc1ccc(O)c(OC)c1)SC[C@H](N)C(=O)O (some centres unmarked) [M2′, 5-cysteinyl-[8]-shogaol]
- p53 expression (Western blot) [4]: increase in p53 accumulation
- p53 expression (Western blot) [5]: increase in p53 accumulation
- IC50 [6]: 15.2 µM
- IC50 [7]: 31.2 µM

SMILES: CCCCCCCCCC(CC(=O)CCc1ccc(O)c(OC)c1)SC[C@H](N)C(=O)O (some centres unmarked) [M2″, 5-cysteinyl-[10]-shogaol]
- p53 expression (Western blot) [4]: increase in p53 accumulation
- p53 expression (Western blot) [5]: increase in p53 accumulation
- IC50 [6]: 13.3 µM
- IC50 [7]: 28.8 µM

SMILES: CCCCCC(CC(O)CCc1ccc(O)c(OC)c1)SCC(NC(C)=O)C(=O)O (centres unmarked) [M4, 5-N-acetylcysteinyl-M6]
- activity against cancer cells (MTT) [2]: little to no activity
- activity against cancer cells (MTT) [3]: little to no activity

- IC50 [8]: > 100 µM
- IC50 [9]: > 100 µM
SMILES: CCCCCC(CC(=O)CCc1ccc(O)c(OC)c1)SC[C@H](NC(C)=O)C(=O)O (some centres unmarked) [M5, 5-N-acetylcysteinyl-[6]-shogaol]
- IC50 [2]: 54.3 µM
- IC50 [3]: 72.6 µM

SMILES: CCCCCCCC(=O)CCc1ccc(O)c(O)c1 [M8, 1-(3′,4′-dihydroxyphenyl)-decan-3-one]
- IC50 at 48 h [10]: > 100 µM
- IC50 at 48 h [11]: > 100 µM
- IC50 ([2]; Homo sapiens): 58.8 µM

- IC50 [12]: 77.7 µM
- IC50 [13]: 82.2 µM
SMILES: CCCCCCCC(O)CCc1ccc(O)c(OC)c1 (centres unmarked) [M9, 1-(4′-hydroxy-3′-methoxyphenyl)-decan-3-ol]
- IC50 at 48 h [10]: > 100 µM
- IC50 at 48 h [11]: > 100 µM
- IC50 ([2]; Homo sapiens): 82.2 µM
- IC50 ([3]; Homo sapiens, NCI-H1299): 82.5 µM
- apoptotic cells (TUNEL) ([14]; H-1299, 40 μM): 7.4%
- apoptotic cells (TUNEL) ([14]; H-1299, 80 μM): 15.4%
- apoptotic cells (TUNEL) ([15]; HCT-116, 40 μM): 9.6%
- apoptotic cells (TUNEL) ([15]; HCT-116, 80 μM): 16.9%

SMILES: CCCCCC(CC(=O)CCc1ccc(O)c(OC)c1)SC (centres unmarked) [M10, 5-methylthio-1-(4′-hydroxy-3′-methoxyphenyl)-decan-3-one]
- IC50 at 48 h [10]: > 100 µM
- IC50 at 48 h [11]: > 100 µM
- IC50 ([2]; Homo sapiens): 78.2 µM
- IC50 ([3]; Homo sapiens, NCI-H1299): 60.6 µM

- IC50 [12]: 66.5 µM
- IC50 [13]: 84 µM
SMILES: CCCCCCCC(=O)CCc1ccc(O)c(OC)c1 [M11, 1-(4′-hydroxy-3′-methoxyphenyl)-decan-3-one]
- IC50 at 48 h [10]: > 100 µM
- IC50 at 48 h [11]: > 100 µM
- IC50 ([2]; Homo sapiens): 84 µM
- IC50 ([3]; Homo sapiens, NCI-H1299): 66.5 µM
- apoptotic cells (TUNEL) ([14]; H-1299, 40 μM): 8.3%
- apoptotic cells (TUNEL) ([14]; H-1299, 80 μM): 19.4%
- apoptotic cells (TUNEL) ([15]; HCT-116, 40 μM): 12.9%
- apoptotic cells (TUNEL) ([15]; HCT-116, 80 μM): 21.1%

SMILES: CCCCCC(CC(O)CCc1ccc(O)c(OC)c1)SC (centres unmarked) [M12, 5-methylthio-1-(4′-Hydroxy-3′-methoxyphenyl)-decan-3-ol]
- IC50 at 48 h [10]: > 100 µM
- IC50 at 48 h [11]: > 100 µM
- IC50 ([3]; Homo sapiens, NCI-H1299): 69.9 µM

- IC50 [8]: 57.5 µM
- IC50 [9]: 75.5 µM
SMILES: CCCCCC(CC(=O)CCc1ccc(O)c(OC)c1)SC[C@H](NC(=O)CC[C@H](N)C(=O)O)C(=O)NCC(=O)O (some centres unmarked) [M13, 5-glutathiol-[6]-shogaol]
- induction of apoptosis (TUNEL) versus DMSO [16]: Apoptosis was observed
- induction of apoptosis (TUNEL) versus DMSO ([17]; 6 hours): higher levels of apoptosis
- induction of apoptosis (TUNEL) versus DMSO ([17]; 24 hours): Apoptosis was observed
- IC50 [2]: 45.5 µM
- IC50 [3]: 47.8 µM
